Experimental data from patent publication US12649751B2 (Arcus Biosciences, Inc., priority 2022, dated 2026).
pIC50: −log10 of the molar value. Read-outs that look alike come from different tables or passages of the source.

What was measured:
HPK1 = HPK1 (Homo sapiens, UniProt Q92918); assay: HPK1 Biochemical Assay (ADP-Glo luminescence; low ATP 10 μM or high ATP 200 μM); conditions: HPK1 ADP-Glo assay
[1] = tested on: p-SLP-76 (Ser376) in Jurkat cells; assay: pSLP76 Cellular Assay (AlphaLISA SureFire Ultra p-SLP-76 (Ser376), anti-CD3 activated Jurkat cells); type: cell-based; conditions: Homo sapiens; pSLP76 (Ser376) AlphaLISA, anti-CD3 activated Jurkat cells; read-out: Cellular Potency
Summary of the method: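 Jurkat cells, serum-starved overnight in Opti-MEM then in HBSS, preincubated 1 h at 37 °C with 22-point 2-fold compound dilutions, then stimulated with anti-CD3 (0.025 mg/ml added solution) for 45 min. Lysate p-SLP-76 (Ser376) measured by AlphaLISA at 570 nm; IC50 from 4-parameter logistic fit.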

[2] = high ATP (200 μM ATP, 5 nM HPK1), read-out: Biochemical Potency (high ATP)
[3] = low ATP (10 μM ATP, 2 nM HPK1), read-out: Biochemical Potency (low ATP)

HPK1, sequence (Q92918 whole entry, species assumed): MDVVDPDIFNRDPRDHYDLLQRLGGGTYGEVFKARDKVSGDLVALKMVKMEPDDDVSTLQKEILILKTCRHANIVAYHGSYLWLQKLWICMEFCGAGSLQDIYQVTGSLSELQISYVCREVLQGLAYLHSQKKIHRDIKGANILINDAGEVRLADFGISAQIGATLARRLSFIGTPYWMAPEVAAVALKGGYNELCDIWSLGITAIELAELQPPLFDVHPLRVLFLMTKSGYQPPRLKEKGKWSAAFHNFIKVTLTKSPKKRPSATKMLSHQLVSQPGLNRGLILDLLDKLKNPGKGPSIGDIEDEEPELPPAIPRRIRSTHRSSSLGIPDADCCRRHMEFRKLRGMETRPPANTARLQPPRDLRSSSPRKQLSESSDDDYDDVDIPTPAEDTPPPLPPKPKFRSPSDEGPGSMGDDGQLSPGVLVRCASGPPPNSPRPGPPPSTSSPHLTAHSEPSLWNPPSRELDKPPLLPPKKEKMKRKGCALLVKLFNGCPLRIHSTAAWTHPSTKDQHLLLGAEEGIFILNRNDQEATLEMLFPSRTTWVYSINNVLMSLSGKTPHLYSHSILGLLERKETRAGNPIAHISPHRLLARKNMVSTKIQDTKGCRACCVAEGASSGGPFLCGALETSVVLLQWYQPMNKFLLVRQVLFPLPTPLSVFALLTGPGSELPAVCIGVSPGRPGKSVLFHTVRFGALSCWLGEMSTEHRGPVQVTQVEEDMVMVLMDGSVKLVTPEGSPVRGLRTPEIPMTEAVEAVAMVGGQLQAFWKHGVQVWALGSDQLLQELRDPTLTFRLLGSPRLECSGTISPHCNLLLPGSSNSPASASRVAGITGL

SMILES | pIC50 (HPK1; [2]) | pIC50 [1] | pIC50 (HPK1; [3])
Cc1cc(Nc2cc3nc(-c4cccc(C(=O)N5C[C@@H]6C[C@H]5CO6)c4)sc3cn2)nc(N2C[C@@H]3C[C@H]2CN3CCO)n1 [Example 564] | > 7.00 | 6.00 to 7.00 | –
Cc1cc(Nc2cc3nc(-c4cccc(C(=O)N5CCOCC5)c4)sc3cn2)nc(N2C[C@@H]3C[C@H]2CN3CCO)n1 [Example 565] | > 7.00 | 6.00 to 7.00 | –
COCCN(C)C(=O)c1cccc(-c2nc3cc(Nc4cc(C)nc(N5C[C@@H]6C[C@H]5CN6C)n4)ncc3s2)c1 [Example 566] | > 7.00 | 6.00 to 7.00 | –
CCN1C[C@@H]2C[C@H]1CN2c1nc(C)cc(Nc2cc3nc(-c4cccc(COC5CC5)c4)sc3cn2)n1 [Example 567] | > 7.00 | 6.00 to 7.00 | –
CCN1C[C@@H]2C[C@H]1CN2c1nc(C)cc(Nc2cc3nc(-c4cccc(C(=O)N(C)C5CCN(C(C)=O)CC5)c4)sc3cn2)n1 [Example 568] | 6.00 to 7.00 | 5.30 to 6.00 | –
CC(=O)N1CCn2ncc(-c3nc4cc(Nc5cc(C)nc(N6C[C@@H]7C[C@H]6CN7C)n5)ncc4s3)c2C1 [Example 569] | > 7.00 | 6.00 to 7.00 | –
Cc1cc(Nc2cc3nc(-c4cnn5c4CN(S(C)(=O)=O)CC5)sc3cn2)nc(N2C[C@@H]3C[C@H]2CN3C)n1 [Example 570] | > 7.00 | > 7.00 | –
CC(=O)N1CCC(n2cc(-c3nc4cc(Nc5cc(C)nc(N6C[C@@H]7C[C@H]6CN7C)n5)ncc4s3)cn2)CC1 [Example 571] | 6.00 to 7.00 | 5.30 to 6.00 | –
Cc1cc(Nc2cc3nc(-c4cnn(C5CCN(S(C)(=O)=O)CC5)c4)sc3cn2)nc(N2C[C@@H]3C[C@H]2CN3C)n1 [Example 572] | > 7.00 | 5.30 to 6.00 | –
CC(=O)N1CCCc2c(-c3nc4cc(Nc5cc(C)nc(N6C[C@@H]7C[C@H]6CN7C)n5)ncc4s3)cccc21 [Example 573] | 6.00 to 7.00 | 5.30 to 6.00 | –
Cc1cc(Nc2cc3nc(-c4ccc5c(c4)CN(S(C)(=O)=O)CC5)sc3cn2)nc(N2C[C@@H]3C[C@H]2CN3C)n1 [Example 574] | > 7.00 | 4.60 to 5.30 | –
Cc1cc(Nc2cc3nc(-c4cnn5c4CNCC5)sc3cn2)nc(N2C[C@@H]3C[C@H]2CN3C)n1 [Example 575] | > 7.00 | 6.00 to 7.00 | –
Cc1cccnc1-c1nc2cc(Nc3ccc4c(n3)[C@@](C)(N)CC4)ncc2s1 [Example 576] | – | 5.30 to 6.00 | > 7.00
Cc1cccnc1-c1nc2cc(Nc3ccc4c(n3)[C@](C)(N)CC4)ncc2s1 [Example 577] | – | 5.30 to 6.00 | > 7.00
Cc1cccnc1-c1nc2cc(Nc3ccc4c(n3)[C@@H](N)CC4)ncc2s1 [Example 581] | – | 6.00 to 7.00 | > 7.00
Cc1cc(Nc2cc3nc(-c4cncc(-c5ncc(F)cc5C)c4)sc3cn2)nc(N2C[C@@H]3C[C@H]2CN3C)n1 [Example 584] | > 7.00 | 6.00 to 7.00 | –
Cc1cc(Nc2cc3nc(-c4cccc(-c5ncccc5C(C)C)c4)sc3cn2)nc(N2C[C@@H]3C[C@H]2CN3C)n1 [Example 585] | > 7.00 | 6.00 to 7.00 | –
Cc1cc(Nc2cc3nc(-c4cccc(-c5ncccc5C)c4)sc3cn2)nc(N2C[C@@H]3C[C@H]2CN3C)n1 [Example 586] | > 7.00 | 6.00 to 7.00 | –
